One block for each compound: values may come before it.
Columns and labels:
[1] = target: T1, Free fatty acid receptor 1 (Homo sapiens, UniProt O14842); experiment: Agonist activity at human FFA1 stably expressed in CHO cells at 300 nM by Fluo4-AM dye based intracellular calcium flux FLIPR assay relative to control; format: functional, cell-based
[2] = target: T2, Peroxisome proliferator-activated receptor gamma (Homo sapiens) (UniProt P37231); experiment: Agonist activity at PPARgamma (unknown origin) assessed as fold increase in calcium by Fluo4-AM dye based intracellular calcium flux assay; format: cell-based; details: filed as agonist
T2 sequence (whole entry): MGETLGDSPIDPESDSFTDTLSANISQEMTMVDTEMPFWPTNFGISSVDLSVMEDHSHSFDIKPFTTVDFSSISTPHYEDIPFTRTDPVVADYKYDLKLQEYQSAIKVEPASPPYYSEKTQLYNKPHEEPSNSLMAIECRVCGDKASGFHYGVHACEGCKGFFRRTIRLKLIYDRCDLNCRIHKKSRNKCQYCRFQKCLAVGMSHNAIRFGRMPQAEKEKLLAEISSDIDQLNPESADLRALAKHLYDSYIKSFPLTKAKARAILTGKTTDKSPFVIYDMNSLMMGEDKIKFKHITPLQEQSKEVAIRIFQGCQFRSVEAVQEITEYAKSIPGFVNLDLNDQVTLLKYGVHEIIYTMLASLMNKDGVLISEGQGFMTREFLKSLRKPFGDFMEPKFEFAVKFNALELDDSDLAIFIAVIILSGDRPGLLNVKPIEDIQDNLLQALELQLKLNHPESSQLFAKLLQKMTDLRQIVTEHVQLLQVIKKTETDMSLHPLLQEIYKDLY

[3] = target: T1, Free fatty acid receptor 1; experiment: Agonist activity at human recombinant FFA1 stably expressed in CHO cells assessed as increase in calcium flux by Fluo4-AM dye based FLIPR assay; format: functional, cell-based
[4] = target: T1, Free fatty acid receptor 1; experiment: Agonist activity at human recombinant GPR40 expressed in CHO cells by Fluo4-AM dye based intracellular calcium flux assay relative to control; format: functional, cell-based
[5] = target: T1, Free fatty acid receptor 1; experiment: Agonist activity at human recombinant GPR40 stably expressed in HEK293 cells at 0.1 uM incubated for 24 hrs by FLIPR assay relative to control; format: functional, cell-based
[6] = target: T1, Free fatty acid receptor 1; experiment: Agonist activity at human FFA1 expressed in CHO cells by Fluo4-AM dye based intracellular calcium flux assay; format: functional, cell-based
[7] = target: T1, Free fatty acid receptor 1; experiment: Agonist activity at human […] expressed in HEK293 cells incubated for 40 mins by Fluo4-AM dye based intracellular calcium flux assay; format: functional, cell-based
[8] = target: T1, Free fatty acid receptor 1; experiment: Agonist activity at human GPR40 expressed in HEK293 cells by Fluo4-AM dye based intracellular calcium flux assay; format: functional, cell-based
[9] = target: T1, Free fatty acid receptor 1; experiment: Agonist activity at human GPR40 stably expressed in CHO cells assessed as increase in intracellular calcium concentration by FLIPR assay; format: functional, cell-based
[10] = target: GPR40-Galpha16 (Homo sapiens, UniProt O14842+P30679); experiment: Agonist activity at human GPR40/Galpha-16 expressed in HEK293 cells by Fluo4-AM dye based intracellular calcium flux assay
GPR40-Galpha16, sequence (O14842 whole entry): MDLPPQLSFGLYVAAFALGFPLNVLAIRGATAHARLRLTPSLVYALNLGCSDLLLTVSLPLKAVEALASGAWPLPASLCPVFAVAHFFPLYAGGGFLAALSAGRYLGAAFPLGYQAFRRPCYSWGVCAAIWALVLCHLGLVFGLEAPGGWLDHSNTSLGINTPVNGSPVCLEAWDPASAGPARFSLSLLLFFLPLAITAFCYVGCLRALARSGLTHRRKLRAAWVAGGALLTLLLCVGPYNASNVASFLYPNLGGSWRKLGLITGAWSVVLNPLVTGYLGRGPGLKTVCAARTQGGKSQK
GPR40-Galpha16, sequence (P30679 whole entry): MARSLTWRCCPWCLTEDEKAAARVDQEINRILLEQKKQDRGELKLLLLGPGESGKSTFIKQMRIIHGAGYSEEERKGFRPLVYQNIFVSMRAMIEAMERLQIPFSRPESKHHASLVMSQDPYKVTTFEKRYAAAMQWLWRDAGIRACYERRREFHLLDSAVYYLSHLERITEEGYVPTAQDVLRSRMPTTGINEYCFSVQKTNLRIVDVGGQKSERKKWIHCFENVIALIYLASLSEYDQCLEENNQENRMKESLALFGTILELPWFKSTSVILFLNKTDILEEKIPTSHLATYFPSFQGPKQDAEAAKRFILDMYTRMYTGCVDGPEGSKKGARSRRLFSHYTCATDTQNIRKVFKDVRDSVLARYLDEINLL

T1 sequence (O14842 whole entry): as the sequence (O14842 whole entry) above

- Activity ([1]; filed as agonist): 50.4%
Structure (SMILES): O=C(O)CC1COc2cc(OCc3cccc(NC(=O)c4coc5ccccc45)c3)ccc21 (configuration not stated)

- fold change (FC) [2]: 2
Structure (SMILES): COc1ccc2[nH]c(SCC(=O)Nc3ccc(OCC(=O)O)cc3)nc2c1

- EC50 [3]: 1390 nM
Structure (SMILES): Cc1ccccc1-c1cccc(COc2ccc(OCC(=O)O)c(F)c2)c1

- Activity [1]: 23.5%
Structure (SMILES): O=C(O)CC1COc2cc(OCc3cccc(OCc4ccccc4)c3)ccc21 (configuration not stated)

- Activity ([4]; filed as agonist): 48.2%
Structure (SMILES): O=C(O)C[C@@H](c1ccc(O[C@@H]2CCc3c2ccc(C(F)(F)F)c3CN2CCCCCC2)cc1)c1ccon1

- Activity ([5]; filed as agonist): 133%
Structure (SMILES): Cc1ccc(O[C@H]2CCOC2)cc1-c1cc(COc2ccc(OCC(=O)O)cc2)cc2c1CCC2

- EC50 [6]: 72.2 nM
Structure (SMILES): [2H]C([2H])(Cc1ccc(OCc2cccc(-c3c(C)cc(OCCCS(C)(=O)=O)cc3C)c2)cc1)C(=O)O

- EC50 [7]: 100000 nM
Structure (SMILES): O=C(O)CCc1ccc(OCc2ccc3ccccc3n2)cc1

- EC50 [6]: 19.1 nM
Structure (SMILES): [2H]C([2H])(Cc1ccc(OCc2cccc(-c3ccccc3C)c2)cc1)C(=O)O

- Activity [4]: 16.5%
Structure (SMILES): O=C(O)C[C@@H](c1ccc(O[C@@H]2CCc3c2ccc(C(F)(F)F)c3CN2CCCCC2)cc1)c1ccon1

- EC50 [8]: 1220 nM
Structure (SMILES): CC(C)(CCCCCCCCCCC(C)(C)CC(=O)O)CC(=O)O

- Activity ([4]; filed as agonist): 45.2%
Structure (SMILES): O=C(O)C[C@@H](c1ccc(O[C@@H]2CCc3c2ccc(C(F)(F)F)c3CN2CCC(F)CC2)cc1)c1ccon1

- Activity ([1]; filed as agonist): 52.7%
Structure (SMILES): O=C(O)CC1COc2cc(OCc3cccc(O/C=C/Oc4ccccc4)c3)ccc21 (configuration not stated)

- fold change (FC) [2]: 2
Structure (SMILES): O=C(O)COc1ccc(NC(=O)CSc2nc3ccccc3[nH]2)cc1

- Activity ([5]; filed as agonist): 51.7%
Structure (SMILES): Cc1ccc(O[C@H]2CCOC2)cc1-c1cccc2c1CC[C@H]2Oc1ccc(OCC(=O)O)cc1

- EC50 [9]: 13200 nM
Structure (SMILES): Cc1cccc(C(=O)Nc2ccc(CC(=O)O)cc2)c1

- EC50 [6]: 42.7 nM
Structure (SMILES): [2H]C([2H])(Cc1ccc(OCc2cccc(-c3c(C)cccc3C)c2)cc1)C(=O)O

- EC50 [10]: 48 nM
Structure (SMILES): O=C(O)CCc1ccc(NCc2cccc(Oc3ccccc3)c2)cc1 [GW9508]

- Activity [1]: 23.7%
Structure (SMILES): Cc1ccc(S(=O)(=O)Nc2cccc(COc3ccc4c(c3)OCC4CC(=O)O)c2)cc1 (configuration not stated)

- Activity ([4]; filed as agonist): 55.1%
Structure (SMILES): CC1CCN(Cc2c(C(F)(F)F)ccc3c2CC[C@H]3Oc2ccc([C@H](CC(=O)O)c3ccon3)cc2)CC1

- Activity ([5]; filed as agonist): 47%
Structure (SMILES): Cc1cc(O[C@H]2CCOC2)cc(C)c1-c1cccc2c1CC[C@H]2Oc1ccc(OCC(=O)O)cc1

- Activity [5]: 1.8%
Structure (SMILES): Cc1ccc(O[C@H]2CCOC2)cc1-c1cc(COc2ccc(OCC(=O)O)cc2)cc2c1OCC2

Source: ChEMBL document CHEMBL5528007, “Synthetic GPR40/FFAR1 agonists: An exhaustive survey on the most recent chemical classes and their structure-activity relationships” (Eur J Med Chem, 2024)
